From patent EP4268824A1 (Manros Therapeutics, priority 2022, dated 2023)
Where two headings read alike, the source gives them in different places.

Key:
CLK4 = CLK4 (Homo sapiens, UniProt Q9HAZ1); experiment: Kinase inhibition, dose-response; type: biochemical
Excerpt: All compounds were additionally tested over a range of concentrations for their ability to inhibit a series of 14 kinases. […] Their F508del-CFTR activity is reported as percentage of F508del-CFTR activity in the presence of Trikafta alone (100%).

F508del-CFTR = molecular target: T1, F508del-CFTR (Homo sapiens, UniProt P13569, DEL508-508); experiment: CFTR activation assay: short-circuit current measurements (Ussing chamber) in CFBE cells treated 24 h with CFTR modulator(s) plus compound; type: cell-based; conditions: for F508del-CFTR activity as percentage of F508del-CFTR activity in the presence of Trikafta alone (100%): CFE cells, with Trikafta; for F508del-CFTR activity ('inhibition shift' induced by CFTR-172) in reference to the CFTR activity induced by Trikafta® alone (value=100): substance with R1 = [drawing 9], CFBE cells, with Trikafta®
T1 construct: expressed in transfected cells; host or cells: CFBE41o- cells (CFBE F508del-CFTR), puromycin-selected
T1 sequence (P13569 with tags, fused parts or gaps DEL508-508): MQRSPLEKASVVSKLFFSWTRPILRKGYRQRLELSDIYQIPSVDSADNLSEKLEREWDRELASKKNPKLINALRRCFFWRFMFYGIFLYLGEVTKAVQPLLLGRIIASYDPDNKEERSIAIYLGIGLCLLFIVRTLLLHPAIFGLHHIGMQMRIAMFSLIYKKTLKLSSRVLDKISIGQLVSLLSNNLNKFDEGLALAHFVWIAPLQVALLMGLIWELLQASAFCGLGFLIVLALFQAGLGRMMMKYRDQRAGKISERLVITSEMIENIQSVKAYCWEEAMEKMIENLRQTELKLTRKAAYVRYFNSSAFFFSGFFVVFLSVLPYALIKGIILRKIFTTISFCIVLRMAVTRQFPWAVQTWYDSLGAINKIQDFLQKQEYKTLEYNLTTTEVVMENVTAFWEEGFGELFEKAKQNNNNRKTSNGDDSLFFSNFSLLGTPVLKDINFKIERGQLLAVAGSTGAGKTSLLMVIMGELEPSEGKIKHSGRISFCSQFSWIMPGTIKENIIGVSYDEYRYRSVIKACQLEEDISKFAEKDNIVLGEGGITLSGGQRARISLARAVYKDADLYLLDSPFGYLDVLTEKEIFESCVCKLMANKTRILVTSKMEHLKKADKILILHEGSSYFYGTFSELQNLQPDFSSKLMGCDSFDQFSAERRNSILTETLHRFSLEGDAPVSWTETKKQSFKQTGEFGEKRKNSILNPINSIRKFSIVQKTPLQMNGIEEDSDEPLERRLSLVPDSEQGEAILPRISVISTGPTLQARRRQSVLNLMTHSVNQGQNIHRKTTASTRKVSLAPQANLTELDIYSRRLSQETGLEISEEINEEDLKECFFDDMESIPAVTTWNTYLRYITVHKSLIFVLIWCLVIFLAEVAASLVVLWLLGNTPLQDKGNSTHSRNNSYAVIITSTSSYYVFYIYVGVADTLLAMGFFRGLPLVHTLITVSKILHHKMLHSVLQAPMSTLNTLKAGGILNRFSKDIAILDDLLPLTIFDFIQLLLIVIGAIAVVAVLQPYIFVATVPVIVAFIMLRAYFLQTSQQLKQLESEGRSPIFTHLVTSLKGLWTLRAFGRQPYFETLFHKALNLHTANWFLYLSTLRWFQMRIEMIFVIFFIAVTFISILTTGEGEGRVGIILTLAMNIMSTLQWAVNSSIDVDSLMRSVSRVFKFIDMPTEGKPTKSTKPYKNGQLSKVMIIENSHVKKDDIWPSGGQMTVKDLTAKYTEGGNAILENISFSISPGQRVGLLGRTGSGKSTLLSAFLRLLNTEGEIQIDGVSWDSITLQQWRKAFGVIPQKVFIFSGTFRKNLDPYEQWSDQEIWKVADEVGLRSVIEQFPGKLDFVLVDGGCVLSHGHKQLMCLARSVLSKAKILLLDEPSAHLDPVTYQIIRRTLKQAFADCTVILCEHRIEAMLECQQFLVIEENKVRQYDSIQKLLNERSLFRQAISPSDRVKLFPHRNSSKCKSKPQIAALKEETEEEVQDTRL
Experimental: • FIG 1. represents the conductance measurement as a function of time for assessing the activity of F508del-CFTR in CFBE cells using the Ussing chamber as set forth in example 13. Cells are incubated for 24 hours with either Trikafta® alone or Trikafta® + a compound of formula (I) as defined herein after. Conductance is measured as a function of time. […] This is the measure which are reported in all Tables shown below. • FIG 2. The correcting effect of Trikafta® on F508del-CFTR in a pulmonary epithelial cell line derived from a F508del-CFTR CF patient was tested as set forth in example 13 herein after in the presence of increasing concentrations of compound (44) as defined herein after and compound (107) as defined herein after. Dose-response curves were built from the activation and inhibition data (see FIG. 1). 100% represents the activity of Trikafta® alone. • FIG 3. […] CFE cells were treated with Trikafta® 100%, 33%, or 11%, in the absence or presence of 1 µM of compound (107). F508del-CFTR activity was monitored as described in the Experimental section and above. Activity is reported as percentage of δF508del-CFTR activity in the presence of Trikafta® alone (100%). The fold change over the activity of Trikafta® alone is indicated in parentheses. • FIG 4. The correcting effect of further CFTR modulators than Trikafta®, i.e. Galapagos compounds as defined herein after (GLPG 222 (G1), GLPG 1837 (G2), GLPG 2451 (G3)) (1 µM each) on F508del-CFTR in a pulmonary epithelial cell line derived from a F508del-CFTR CF patient was tested as set forth in example 13 herein after in the presence of increasing concentrations of compound (107) as defined herein after. Dose-response curves were built from the activation and inhibition data (see FIG. 1). 100% represents the activity of each CFTR modulator alone.
The activity of F508del-CFTR was indeed estimated according to the method described below in example 13. This method makes use of CFBE cells, an immortalized cell line generated from bronchial epithelium of a CF patient homozygous for F508del-CFTR [Kunzelmann, K. et al., 1993. An immortalized cystic fibrosis tracheal epithelial cell line homozygous for the F508del CFTR mutation. Am. J. Respir. Cell Mol. Biol. 8, 522-529.]. Cells are exposed for 24 hours to a combination of Trikafta® and a compound of formula (I) as defined herein after to be evaluated, and the activity of F508del-CFTR is measured by conductance in a Ussing chamber. The activation is initiated by addition of Forskolin (1 µM). […] All compounds tested were evaluated in combination with Trikafta®. In most instances, compounds were tested in triplicates at 0.1, 1 and 10 µM.
Wild-type CFBE cells (containing full-length, unmutated CFTR) are used as a reference.
F508del-CFTR expressing cells used in this present study were treated with CFTR modulators 24 h prior the experiments. The following CFTR modulators were used: Vx770 (Ivacaftor) (Selleckchem, S 1144) (Selleckchem, 24, rue des Tuileries, BP684, 67460 Souffelweyersheim, France), Vx445 (Elexacaftor) (Selleckchem, SE-S8851), Vx661 (Tezacaftor) (TargetMol, HY-15448) (TargetMol, Tebu-bio, 39 rue de Houdan, BP 15, 78612 Le-Perray-en-Yvelines cedex, France). Trikafta® is the combination of 1 µM Vx770, 3 µM Vx 445 and […] Vx661.
CFBE cell line stably expressing F508del-CFTR or WT-CFTR (CFBE WT-CFTR) were grown at 37°C in 5% CO2 - 95% air and media was replaced every 2 days.

CLK3 = CLK3 (Homo sapiens, UniProt P49761); experiment: Kinase inhibition, dose-response; type: biochemical; conditions: > 10: no inhibition at 10 µM, the highest dose tested
Experimental: (§1) All compounds were additionally tested over a range of concentrations for their ability to inhibit a series of 14 kinases. IC50 values were calculated from the dose-response curves and are reported in µM. > 10, no inhibition at 10 µM, the highest dose tested (see table 6 below). [drawing 409] Table 5: CFE cells were treated with Trikafta in the presence of increasing concentrations of various compounds and their N7-methylated counterparts. Their F508del-CFTR activity is reported as percentage of F508del-CFTR activity in the presence of Trikafta alone (100%).

CDK9 = CDK9 (Homo sapiens, UniProt P50750); experiment: Kinase inhibition, dose-response; type: biochemical; conditions: > 10: no inhibition at 10 µM, the highest dose tested
Sequence of CDK9 (P50750 whole entry, species assumed): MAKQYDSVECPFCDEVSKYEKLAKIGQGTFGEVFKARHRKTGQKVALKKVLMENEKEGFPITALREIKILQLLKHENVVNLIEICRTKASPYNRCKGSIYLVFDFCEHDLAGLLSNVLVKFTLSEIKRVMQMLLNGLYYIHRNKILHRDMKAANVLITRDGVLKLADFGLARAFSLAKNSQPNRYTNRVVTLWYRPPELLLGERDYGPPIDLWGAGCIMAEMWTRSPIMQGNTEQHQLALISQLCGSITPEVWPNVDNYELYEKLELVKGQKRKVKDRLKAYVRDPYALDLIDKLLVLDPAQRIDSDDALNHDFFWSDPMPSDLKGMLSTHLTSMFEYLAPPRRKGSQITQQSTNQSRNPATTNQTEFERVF
Sequence of CDK9 (O60563 whole entry partner, species assumed): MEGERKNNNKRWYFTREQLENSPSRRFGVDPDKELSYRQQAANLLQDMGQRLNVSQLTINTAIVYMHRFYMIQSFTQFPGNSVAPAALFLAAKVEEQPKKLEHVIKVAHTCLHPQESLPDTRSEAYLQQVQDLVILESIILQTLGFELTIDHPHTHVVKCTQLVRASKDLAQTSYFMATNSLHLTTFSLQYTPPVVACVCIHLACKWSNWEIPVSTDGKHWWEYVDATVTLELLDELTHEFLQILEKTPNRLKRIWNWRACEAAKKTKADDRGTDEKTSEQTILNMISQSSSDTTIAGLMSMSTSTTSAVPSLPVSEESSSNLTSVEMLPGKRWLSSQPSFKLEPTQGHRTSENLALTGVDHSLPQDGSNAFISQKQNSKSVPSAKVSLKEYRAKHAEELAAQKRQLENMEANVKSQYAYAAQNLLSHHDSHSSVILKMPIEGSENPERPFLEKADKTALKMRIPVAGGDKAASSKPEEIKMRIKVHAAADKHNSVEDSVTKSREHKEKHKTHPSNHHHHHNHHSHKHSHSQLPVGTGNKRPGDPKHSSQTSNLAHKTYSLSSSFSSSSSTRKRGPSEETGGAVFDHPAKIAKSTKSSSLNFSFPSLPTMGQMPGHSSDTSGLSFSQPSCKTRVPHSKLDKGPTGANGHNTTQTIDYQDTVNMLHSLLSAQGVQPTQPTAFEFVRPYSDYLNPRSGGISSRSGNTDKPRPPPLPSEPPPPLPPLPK
Experimental: as §1

CK1δ = CK1δ (Homo sapiens, UniProt P48730); experiment: Kinase inhibition, dose-response; type: biochemical; conditions: > 10: no inhibition at 10 µM, the highest dose tested
Experimental: as §1

CK1γ1 = CK1γ1 (Homo sapiens, UniProt Q9HCP0); experiment: Kinase inhibition, dose-response; type: biochemical; conditions: > 10: no inhibition at 10 µM, the highest dose tested
Sequence of CK1γ1 (Q9HCP0 whole entry): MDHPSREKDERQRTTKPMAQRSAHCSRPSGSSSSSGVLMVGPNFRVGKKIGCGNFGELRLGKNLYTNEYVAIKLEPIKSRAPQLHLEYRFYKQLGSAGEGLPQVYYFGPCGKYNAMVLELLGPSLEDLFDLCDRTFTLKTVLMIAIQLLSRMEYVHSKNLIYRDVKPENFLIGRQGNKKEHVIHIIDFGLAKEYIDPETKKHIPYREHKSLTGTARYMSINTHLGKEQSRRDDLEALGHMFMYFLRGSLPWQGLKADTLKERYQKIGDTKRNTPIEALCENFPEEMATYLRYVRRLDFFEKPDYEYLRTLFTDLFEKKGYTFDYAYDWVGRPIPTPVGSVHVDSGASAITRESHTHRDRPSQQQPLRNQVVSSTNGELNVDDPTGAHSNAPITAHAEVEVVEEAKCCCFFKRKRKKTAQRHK
Experimental: as §1

CDK2 = CDK2 (Homo sapiens, UniProt P24941); experiment: Kinase inhibition, dose-response; type: biochemical; conditions: > 10: no inhibition at 10 µM, the highest dose tested
Experimental: as §1

CLK1 = CLK1 (Homo sapiens, UniProt P49759); experiment: Kinase inhibition, dose-response; type: biochemical; conditions: > 10: no inhibition at 10 µM, the highest dose tested
Sequence of CLK1 (P49759 whole entry): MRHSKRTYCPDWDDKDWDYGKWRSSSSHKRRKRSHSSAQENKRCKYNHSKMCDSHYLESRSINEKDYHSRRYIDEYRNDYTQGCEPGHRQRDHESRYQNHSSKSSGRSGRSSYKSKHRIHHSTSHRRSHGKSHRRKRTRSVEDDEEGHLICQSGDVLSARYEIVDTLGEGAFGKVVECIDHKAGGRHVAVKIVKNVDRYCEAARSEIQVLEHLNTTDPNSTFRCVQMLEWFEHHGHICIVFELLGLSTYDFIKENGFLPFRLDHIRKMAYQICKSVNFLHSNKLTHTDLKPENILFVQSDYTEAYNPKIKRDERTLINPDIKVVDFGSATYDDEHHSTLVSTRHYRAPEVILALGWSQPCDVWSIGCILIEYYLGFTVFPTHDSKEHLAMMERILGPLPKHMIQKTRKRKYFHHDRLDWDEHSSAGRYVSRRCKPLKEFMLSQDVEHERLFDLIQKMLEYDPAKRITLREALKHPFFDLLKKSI
Experimental: as §1

CK1ε = CK1ε (Homo sapiens, UniProt P49674); experiment: Kinase inhibition, dose-response; type: biochemical; conditions: > 10: no inhibition at 10 µM, the highest dose tested
Experimental: as §1

CK1γ2 = CK1γ2 (Homo sapiens, UniProt P78368); experiment: Kinase inhibition, dose-response; type: biochemical; conditions: > 10: no inhibition at 10 µM, the highest dose tested
Experimental: as §1

CK1α1 = CK1α1 (Homo sapiens, UniProt P48729); experiment: Kinase inhibition, dose-response; type: biochemical; conditions: > 10: no inhibition at 10 µM, the highest dose tested
Sequence of CK1α1 (P48729 whole entry): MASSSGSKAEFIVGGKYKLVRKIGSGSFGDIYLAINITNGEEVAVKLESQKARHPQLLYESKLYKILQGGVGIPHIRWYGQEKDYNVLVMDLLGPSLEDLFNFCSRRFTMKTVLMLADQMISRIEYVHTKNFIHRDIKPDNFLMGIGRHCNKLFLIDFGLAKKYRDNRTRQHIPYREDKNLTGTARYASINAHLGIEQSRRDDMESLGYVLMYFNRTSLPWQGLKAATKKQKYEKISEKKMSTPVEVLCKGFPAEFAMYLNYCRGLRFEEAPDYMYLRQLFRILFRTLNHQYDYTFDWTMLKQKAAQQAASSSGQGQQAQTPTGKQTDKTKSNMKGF
Experimental: as §1

CDK7 = CDK7 (Homo sapiens, UniProt P50613); experiment: Kinase inhibition, dose-response; type: biochemical; conditions: > 10: no inhibition at 10 µM, the highest dose tested
Experimental: as §1

DYRK1A = DYRK1A (Homo sapiens, UniProt Q13627); experiment: Kinase inhibition, dose-response; type: biochemical; conditions: > 10: no inhibition at 10 µM, the highest dose tested
Experimental: as §1

CK1γ3 = CK1γ3 (Homo sapiens, UniProt Q9Y6M4); experiment: Kinase inhibition, dose-response; type: biochemical; conditions: > 10: no inhibition at 10 µM, the highest dose tested
Sequence of CK1γ3 (Q9Y6M4 whole entry): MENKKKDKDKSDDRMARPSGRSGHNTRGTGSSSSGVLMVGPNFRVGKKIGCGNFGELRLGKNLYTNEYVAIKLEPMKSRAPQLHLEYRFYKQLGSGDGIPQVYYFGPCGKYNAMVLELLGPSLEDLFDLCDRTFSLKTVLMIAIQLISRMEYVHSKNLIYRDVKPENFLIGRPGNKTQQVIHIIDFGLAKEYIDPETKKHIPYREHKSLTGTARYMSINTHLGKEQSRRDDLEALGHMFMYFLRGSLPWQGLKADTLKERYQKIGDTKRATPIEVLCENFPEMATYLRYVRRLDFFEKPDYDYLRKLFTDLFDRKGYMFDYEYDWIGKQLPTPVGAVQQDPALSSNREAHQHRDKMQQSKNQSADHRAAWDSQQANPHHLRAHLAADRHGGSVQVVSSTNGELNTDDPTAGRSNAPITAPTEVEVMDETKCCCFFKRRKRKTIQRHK
Experimental: as §1

CLK2 = CLK2 (Homo sapiens, UniProt P49760); experiment: Kinase inhibition, dose-response; type: biochemical; conditions: > 10: no inhibition at 10 µM, the highest dose tested
Sequence of CLK2 (P49760 whole entry, species assumed): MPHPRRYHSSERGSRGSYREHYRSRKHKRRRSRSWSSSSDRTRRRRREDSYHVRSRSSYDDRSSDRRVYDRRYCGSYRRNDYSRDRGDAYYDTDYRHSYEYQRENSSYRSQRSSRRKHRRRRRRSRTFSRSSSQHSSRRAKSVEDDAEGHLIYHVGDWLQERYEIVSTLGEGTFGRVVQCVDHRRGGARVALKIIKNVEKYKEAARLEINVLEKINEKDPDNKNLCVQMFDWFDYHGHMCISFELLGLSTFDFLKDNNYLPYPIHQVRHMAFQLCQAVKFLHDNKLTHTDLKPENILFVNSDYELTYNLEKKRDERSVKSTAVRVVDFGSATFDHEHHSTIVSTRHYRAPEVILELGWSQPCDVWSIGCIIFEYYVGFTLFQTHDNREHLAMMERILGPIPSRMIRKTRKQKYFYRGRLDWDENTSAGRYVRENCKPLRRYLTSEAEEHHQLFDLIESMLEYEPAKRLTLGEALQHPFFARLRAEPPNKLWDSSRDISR
Experimental: as §1

LogD determined by HPLC = type: physicochemical

With `CC(C)c1cnc2c(N(C)Cc3ccccc3)nc(N[C@@H]3CCOC3)nn12` [compound 32] the IC50 (CLK4; read-out: IC50 CLK4, > 10: no inhibition at 10 µM, the highest dose tested) was over 10 µM, the “F508del-CFTR activity as percentage of F508del-CFTR activity in the presence of Trikafta alone (100%)” value (from here on “F508del-CFTR activity as percentage … (100%)”) (F508del-CFTR; concentration 0.1 µM) was 117.9% and the “F508del-CFTR activity as percentage … (100%)” value (F508del-CFTR; concentration 1 µM) was 113.7%. The “F508del-CFTR activity as percentage … (100%)” value (F508del-CFTR; concentration 10 µM) was 135.1%, the IC50 (CLK3) was over 10 µM and the IC50 (CDK9) was over 10 µM. The IC50 (CK1δ) was over 10 µM, the IC50 (CK1γ1) was over 10 µM and the IC50 (CDK2) was over 10 µM. For the same compound, the IC50 (CLK1) was over 10 µM, the IC50 (CK1ε) was over 10 µM and the IC50 (CK1γ2) was over 10 µM. The IC50 (CK1α1) was over 10 µM, the IC50 (CDK7) was over 10 µM and the IC50 (DYRK1A) was over 10 µM. The IC50 (CK1γ3) was over 10 µM and the IC50 (CLK2) was over 10 µM.
With `CC(C)c1cnn2c(NCc3ccccc3)nc(N[C@@H]3CCOC3)nc12` [(C), reference compound] the “F508del-CFTR activity ('inhibition shift' induced by CFTR-172) in reference to the CFTR activity induced by Trikafta® alone (value=100)” value (F508del-CFTR; C 0.1 µM) was 109.7, the “F508del-CFTR activity ('inhibition shift' induced by CFTR-172) in reference to the CFTR activity induced by Trikafta® alone (value=100)” value (F508del-CFTR; C 1 µM) was 99.5 and the “F508del-CFTR activity ('inhibition shift' induced by CFTR-172) in reference to the CFTR activity induced by Trikafta® alone (value=100)” value (F508del-CFTR; C 10 µM) was 116.1.
In the case of `CC(C)c1cnn2c(NCc3ccccc3)cc(N[C@@H]3CCOC3)nc12` [(D), reference compound], the “F508del-CFTR activity ('inhibition shift' induced by CFTR-172) in reference to the CFTR activity induced by Trikafta® alone (value=100)” value (F508del-CFTR; C 0.1 µM) is reported as 98.0, the “F508del-CFTR activity ('inhibition shift' induced by CFTR-172) in reference to the CFTR activity induced by Trikafta® alone (value=100)” value (F508del-CFTR; C 1 µM) is reported as 110.1 and the “F508del-CFTR activity ('inhibition shift' induced by CFTR-172) in reference to the CFTR activity induced by Trikafta® alone (value=100)” value (F508del-CFTR; C 10 µM) is reported as 98.7.
`CC(C)c1cnc2c(NCc3ccccc3)nc(NC3CCOCC3)nn12` [compound 44] gave an IC50 (CLK4) of 0.58 µM, an IC50 (CLK3) of over 10 µM and an IC50 (CDK9) of 1.17 µM. The IC50 (CK1δ) was 0.626 µM, the IC50 (CK1γ1) was over 10 µM and the IC50 (CDK2) was 0.579 µM. It also gave an IC50 (CLK1) of 0.537 µM, an IC50 (CK1ε) of 1.73 µM and an IC50 (CK1γ2) of over 10 µM. For the same compound, the IC50 (CK1α1) was over 10 µM, the IC50 (CDK7) was 0.207 µM and the IC50 (DYRK1A) was 6.53 µM. The IC50 (CK1γ3) was over 10 µM and the IC50 (CLK2) was 0.493 µM.
In the case of `CC(C)c1cnc2c(NCc3ccccc3)nc(NC3CCN(C)CC3)nn12` [compound 61, N4-Benzyl-7-isopropyl-N2-(1-methyl-4-piperidyl)imidazo[2,1-f][1,2,4]triazine-2,4-diamine], the chromatographic logD (LogD determined by HPLC) is reported as 2.14.
With `CC(C)c1cnc2c(NCc3ccccc3)nc(Nc3ccnn3C)nn12` [compound 107, N4-Benzyl-7-isopropyl-N2-(2-methylpyrazol-3-yl)imidazo[2,1-f][1,2,4]triazine-2,4-diamine] the “F508del-CFTR activation with diluted Trikafta®” value (F508del-CFTR; Trikafta® 100%, 33% or 11%, absence or presence of 1 µM compound, FIG 3) was “compensates the dilution of Trikafta®” and the chromatographic logD (LogD determined by HPLC) was 2.98.
Work on `COC1CCN(c2nc(NCc3ccccc3)c3ncc(C(C)C)n3n2)CC1` [compound 81, N-Benzyl-7-isopropyl-2-(4-methoxy-1-piperidyl)imidazo[2,1-f][1,2,4]triazin-4-amine] yielded a chromatographic logD (LogD determined by HPLC) of 4.6.
For `CC(C)c1cnc2c(NCc3ccccc3)nc(NCc3cnn(C)c3)nn12` [compound 115, N4-Benzyl-7-isopropyl-N2-[(1-methylpyrazol-4-yl)methyl]imidazo[2,1-f][1,2,4]triazine-2,4-diamine], the chromatographic logD (LogD determined by HPLC) was 2.98.
For `CC(C)c1cnc2c(NCc3ccccc3)nc(NC3CCC[C@@H]3O)nn12` (stereo partly drawn) [compound 65, (1S)-2-[[4-(Benzylamino)-7-isopropyl-imidazo[2,1-f][1,2,4]triazin-2-yl]amino]cyclopentanol], the chromatographic logD (LogD determined by HPLC) was 3.26.
